Literature values, collected in patent US20220280453A1, “Pharmaceutical Formulation” (Klaria Pharma Holding AB, priority 2019, published 2022).
Counter-ions that a name gives are not always drawn.

Experiments:
[1] = ionized form
[2] = counterions of strong acids; Shannon effective ionic radii

| SMILES | pH at which most stable in solution [1] | Ionic radius [2] [Å] |
| --- | --- | --- |
| CNC1(c2ccccc2Cl)CCCCC1=O (racemic) [Ketamine, ketamine] | around 4 | – |
| Br [Bromide (Br^−), Bromide] | – | 1.96 |
| Cl [Chloride (Cl^−), Chloride] | – | 1.81 |
| F [Fluoride (F^−), Fluoride] | – | 1.33 |
| I [Iodide (I^−), Iodide] | – | 2.20 |
| O=[N+]([O-])O [Nitrate (NO3^−), Nitrate] | – | 2.62 |
| O=S(=O)(O)O [Sulfate (SO4^2−), Sulfate] | – | 2.89 |
